From US20030072816A1, “Agents improving skin barrier function” (priority 2000, published 2003) come the findings set out here.

The structures appear in SMILES notation.

This assay deals with Human epidermal keratinocytes. The assay can be described thus: Formation of CE in cultured keratinocytes (amount of CE by visual observation or count under a microscope). More on the design: key: −: No CE formation; ++: CE formation in an amount equal to that in positive control (growth medium) is observed; +++: Clearly more CE formation than in positive control (growth medium) is observed. The class given is cell-based. The conditions noted are these: test substance 3% in MEM containing 0.1% bovine serum albumin, cultured 1 week. The protocol: Human epidermal keratinocytes were cultured according to the method of Rheinwald & Green (Cell 6: 331-344, 1975). The cells were cultured in a growth medium (DMEM-Ham's F12 (3:1) containing 10% fetal bovine serum, 0.5 μg/ml hydrocortisone, 5 μg/ml insulin, 10^−10 M cholera toxin, 10 ng/ml epidermal growth factor and 1.8×10^−4 M adenine) up to confluent, the medium was replaced with a medium (MEM containing 0.1% bovine serum albumin) containing a test substance, and culturing was continued for further 1 week. After completion of the culturing, Tris-hydrochloric acid buffer containing dithiothreitol and sodium dodecyl sulfate was added, and the mixture was heated at 100° C. for 10 minutes. The insoluble substance was collected by centrifugation at 4,000 g for 10 minutes. The eluent addition and heating were repeated and thereby soluble components were thoroughly removed. The thus obtained insoluble substance was referred to as CE. The amount of the obtained CE was evaluated by visual observation. Otherwise, the number was counted under a microscope using a cytometer.

Take `CC(C)CCCC(C)CCCC(C)CCCCC(C)CCCC(C)CCCC(C)C` (stereo not shown) [Squalane]: the CE formation-accelerating effect result is “−”.
